According to patent US11248013B2, “Tricyclic inhibitors of poly(ADP-ribose)polymerase” (Rakovina Therapeutics Inc., priority 2011, dated 2022):

These molecules were tested against intracellular PARP enzyme (Homo sapiens, UniProt P09874) (assay: PARP Cell Assay (IHC, intracellular poly(ADP)-ribose formation in C41 cells)). Conditions: C41 cells (Human cervical carcinoma), 2 h compound, 1.0 mM H2O2 for 10 min; read-out: EC50 (TARP cell assay).
Assay type: cell-based
Method: Inhibition of intracellular PARP enzyme was determined using an immunohistochemistry (IHC) assay. The cellular assay measures the formation of poly (ADP)-ribose catalyzed by PARP inside cells.
Anti-PAR (Ab-1) Mouse mAb (10H) (Calbiochem, AM-80); Anti-Mouse IgG (whole molecule)-FITC antibody produced in goat (sigma, F2012); DAPI (sigma, D9542).
The C41 cells (Human cervical carcinoma; ATCC No. CRL-1594) were planted into 96-well plates at 8.0E4 cells/well and incubated at 37° C. overnight. Cells were washed with 37° C. warmed PBS once and treated with test compounds for 2 h in 96-well plates. Cells were washed with 37° C. warmed PBS once, and PARP was activated by damaging DNA with 1.0 mM H2O2 for 10 min. Cells were washed with ice-cold PBS once and fixed with pre-chilled methanol/acetone (7:3) at −20° C. for 10 min. After air-drying, plates were rehydrated with PBS and blocked using 5% nonfat dry milk in PBS-Tween (0.05%) (block solution) for 30 min at room temperature. […] After washing with PBS-Tween20.5 times, analysis was performed using Vector 3 Microplate Reader (PerkinElmer) set at the excitation (485 nm) and emission (535 nm) wavelength for FITC or the excitation (364 nm) and emission (454 nm) wavelength for DAPI. […]

Chain of intracellular PARP enzyme (P09874 2-1014 limits assumed): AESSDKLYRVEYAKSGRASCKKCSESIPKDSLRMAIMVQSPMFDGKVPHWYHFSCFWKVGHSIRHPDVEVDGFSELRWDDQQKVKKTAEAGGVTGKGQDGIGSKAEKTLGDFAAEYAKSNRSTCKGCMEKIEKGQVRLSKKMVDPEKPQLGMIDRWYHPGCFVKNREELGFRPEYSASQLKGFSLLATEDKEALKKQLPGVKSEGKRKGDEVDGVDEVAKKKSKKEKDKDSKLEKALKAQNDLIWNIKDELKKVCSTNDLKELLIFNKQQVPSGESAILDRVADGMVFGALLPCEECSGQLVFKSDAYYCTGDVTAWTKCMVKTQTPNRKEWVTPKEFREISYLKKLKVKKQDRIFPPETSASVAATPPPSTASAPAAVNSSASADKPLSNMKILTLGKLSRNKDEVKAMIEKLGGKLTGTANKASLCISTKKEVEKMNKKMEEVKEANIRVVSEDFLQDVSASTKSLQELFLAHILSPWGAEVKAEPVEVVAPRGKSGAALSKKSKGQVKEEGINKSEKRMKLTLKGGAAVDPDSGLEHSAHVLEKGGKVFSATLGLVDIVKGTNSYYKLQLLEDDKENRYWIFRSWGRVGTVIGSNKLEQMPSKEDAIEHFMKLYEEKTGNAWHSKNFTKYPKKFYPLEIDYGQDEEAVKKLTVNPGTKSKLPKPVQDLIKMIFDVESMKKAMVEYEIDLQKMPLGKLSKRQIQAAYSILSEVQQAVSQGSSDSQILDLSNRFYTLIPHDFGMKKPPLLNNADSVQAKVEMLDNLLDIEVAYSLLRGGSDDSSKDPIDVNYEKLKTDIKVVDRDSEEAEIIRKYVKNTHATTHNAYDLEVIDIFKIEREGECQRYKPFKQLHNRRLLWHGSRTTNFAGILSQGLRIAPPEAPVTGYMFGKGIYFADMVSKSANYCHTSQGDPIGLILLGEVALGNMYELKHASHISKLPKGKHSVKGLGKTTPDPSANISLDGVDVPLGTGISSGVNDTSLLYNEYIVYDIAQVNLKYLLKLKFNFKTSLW

Row | EC50 | Molecule
1 | 100 to 1000 nM | CC(C)CCN1CCP(=O)(c2cc(Cc3n[nH]c(=O)c4ccccc34)ccc2F)CC1 [Example 48]

Each molecule was assayed against PARP-1 (Homo sapiens (Human), UniProt P09874) (assay: PARP-1 Enzyme Assay (HT Universal Colorimetric PARP Assay Kit)). Conditions: OD450, read-out: IC50 (PARP-1 inhibition).
Assay type: biochemical
Method: Inhibition of PARP-1 enzymatic activities was measured using an HT Universal Colorimetric PARP Assay Kit (Trevigen, catalogue #4677-096-K) following the standard procedures.
Serial dilutions of PARP compounds were added to appropriate wells. The compound was incubated with PARP enzyme at RT for 10 min, and the reaction was initiated by addition of the PARP substrate cocktail, Each concentration of compound was tested in triplicate wells. After 15 min reaction, the reaction was stopped, and the Strep-HRP was added into each well and incubated for 1 h at RT. After addition of TACS-Sapphire™ colorimetric substrate and incubated in dark for 15 min, the OD450 was read out with an EnVision instrument. IC50 values (the concentration at which 50% of the enzyme activity is inhibited) were calculated, which are determined over a range of different concentrations, normally from 10 μM to 0.1 nM.

Chain of PARP-1 (P09874 whole entry): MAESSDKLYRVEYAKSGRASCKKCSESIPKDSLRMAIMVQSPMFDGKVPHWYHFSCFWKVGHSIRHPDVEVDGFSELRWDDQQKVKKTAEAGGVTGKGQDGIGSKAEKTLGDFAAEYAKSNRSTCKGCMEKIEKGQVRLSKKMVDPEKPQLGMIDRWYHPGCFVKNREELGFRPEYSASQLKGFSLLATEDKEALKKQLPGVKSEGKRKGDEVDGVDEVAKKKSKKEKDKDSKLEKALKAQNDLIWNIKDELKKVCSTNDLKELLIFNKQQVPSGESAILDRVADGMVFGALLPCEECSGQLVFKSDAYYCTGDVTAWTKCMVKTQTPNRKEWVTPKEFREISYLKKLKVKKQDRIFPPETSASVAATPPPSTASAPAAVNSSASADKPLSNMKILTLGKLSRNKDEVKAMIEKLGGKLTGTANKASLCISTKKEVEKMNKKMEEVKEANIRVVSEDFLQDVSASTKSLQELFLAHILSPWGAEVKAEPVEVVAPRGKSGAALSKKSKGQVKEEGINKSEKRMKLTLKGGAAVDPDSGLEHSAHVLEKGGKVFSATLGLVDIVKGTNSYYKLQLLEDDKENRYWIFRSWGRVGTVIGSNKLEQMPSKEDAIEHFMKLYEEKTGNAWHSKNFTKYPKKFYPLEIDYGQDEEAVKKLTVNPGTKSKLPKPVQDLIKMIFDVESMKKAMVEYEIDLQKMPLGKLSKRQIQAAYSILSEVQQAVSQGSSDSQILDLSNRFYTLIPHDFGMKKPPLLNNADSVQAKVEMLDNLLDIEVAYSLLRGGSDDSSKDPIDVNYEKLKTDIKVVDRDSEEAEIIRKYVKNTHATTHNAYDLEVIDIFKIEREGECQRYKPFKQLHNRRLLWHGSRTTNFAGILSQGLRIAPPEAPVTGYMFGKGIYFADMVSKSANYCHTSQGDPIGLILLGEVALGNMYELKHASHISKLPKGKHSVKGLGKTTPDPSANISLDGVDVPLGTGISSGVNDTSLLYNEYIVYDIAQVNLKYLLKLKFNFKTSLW

Row | IC50 | Molecule
2 | < 100 nM | O=c1[nH]nc(Cc2ccc(F)c(P3(=O)CCN(c4ccccn4)CC3)c2)c2ccccc12 [Example 19, 4-(4-fluoro-3-(4-oxido-1-(pyridin-2-yl)-1,4-azaphosphinan-4-yl)benzyl)phthalazin-1(2H)-one]
3 | < 100 nM | O=c1[nH]nc(Cc2ccc(F)c(P3(=O)CCN(CC4CC4)CC3)c2)c2ccccc12 [Example 43, 4-(3-(1-(cyclopropylmethyl)-4-oxido-1,4-azaphosphinan-4-yl)-4-fluorobenzyl)phthalazin-1(2H)-one]
4 | < 100 nM | CCN1CCP(=O)(c2cc(Cc3n[nH]c(=O)c4ccccc34)ccc2F)CC1 [Example 41, 4-(3-(1-ethyl-4-oxido-1,4-azaphosphinan-4-yl)-4-fluorobenzyl)phthalazin-1(2H)-one]
5 | 100 to 1000 nM | O=C(N1CCCC1)N1CCP(=O)(c2cc(Cc3n[nH]c(=O)c4ccccc34)ccc2F)CC1 [Example 10]

The remaining lines, values behind:

Row | Molecule | IC50
6 | CC(C)CCN1CCP(=O)(c2cc(Cc3n[nH]c(=O)c4ccccc34)ccc2F)CC1 [Example 48] | < 100 nM
7 | O=c1[nH]nc(Cc2ccc(F)c(P3(=O)CCN(C4CCC4)CC3)c2)c2ccccc12 [Example 39, 4-(3-(1-cyclobutyl-4-oxido-1,4-azaphosphinan-4-yl)-4-fluorobenzyl)phthalazin-1(2H)-one] | < 100 nM
8 | 4-(4-fluoro-3-(4-oxido-1-(tetrahydrofuran-2-carbonyl)-1,4-azaphosphinan-4-yl)benzyl)phthalazin-1(2H)-one [Example 7] | 100 to 1000 nM
9 | [2H]C([2H])(c1ccc(F)c(P2(=O)CCN(c3ncccn3)CC2)c1)c1n[nH]c(=O)c2cc(F)ccc12 [Example 57, 4-[(4-fluoro-3-(4-oxido-1-(pyrimidin-2-yl)-1,4-azaphosphinan-4-yl)phenyl)dideuteromethyl]-7-fluorophthalazin-1(2H)-one] | < 100 nM
